Laboratory results published in BigSolDB 2.1.

`COc1cc(NS(=O)(=O)c2ccc(N)cc2)ncn1` gave a solubility (mole fraction) (in acetone, 299.05 K) of 0.00789, a solubility (mole fraction) (in acetone, 303.3 K) of 0.00849 and a solubility (mole fraction) (in acetone, 308.2 K) of 0.00935. For the same molecule, the solubility (mole fraction) (in acetone, 313.15 K) was 0.0105, the solubility (mole fraction) (in acetone, 318.05 K) was 0.0112 and the solubility (mole fraction) (in acetone, 323.05 K) was 0.0124. It also gave a solubility (mole fraction) (in ethanol, 297.95 K) of 0.000496, a solubility (mole fraction) (in ethanol, 310.95 K) of 0.000859 and a solubility (mole fraction) (in ethanol, 317.65 K) of 0.00109. For the same molecule, the solubility (mole fraction) (in ethanol, 327.95 K) was 0.00161, the solubility (mole fraction) (in ethanol, 337.85 K) was 0.00243 and the solubility (mole fraction) (in ethanol, 347.15 K) was 0.00356. It also gave a solubility (mole fraction) (in ethyl acetate, 300.65 K) of 0.00114, a solubility (mole fraction) (in ethyl acetate, 308.2 K) of 0.00131 and a solubility (mole fraction) (in ethyl acetate, 316.05 K) of 0.00146. For the same molecule, the solubility (mole fraction) (in ethyl acetate, 324 K) was 0.00169, the solubility (mole fraction) (in ethyl acetate, 331.95 K) was 0.00184 and the solubility (mole fraction) (in ethyl acetate, 339.8 K) was 0.00205. The solubility (mole fraction) (in methanol, 294.55 K) was 0.000735, the solubility (mole fraction) (in methanol, 303.15 K) was 0.000951 and the solubility (mole fraction) (in methanol, 309.95 K) was 0.00117. For the same molecule, the solubility (mole fraction) (in methanol, 317.75 K) was 0.00164, the solubility (mole fraction) (in methanol, 325.85 K) was 0.00221 and the solubility (mole fraction) (in methanol, 332.65 K) was 0.00284. The solubility (mole fraction) (in n-butanol, 305.2 K) was 0.000117, the solubility (mole fraction) (in n-butanol, 318.05 K) was 0.000288 and the solubility (mole fraction) (in n-butanol, 327.85 K) was 0.000607. The solubility (mole fraction) (in n-butanol, 339.85 K) was 0.00121, the solubility (mole fraction) (in n-butanol, 352.55 K) was 0.0029 and the solubility (mole fraction) (in n-butanol, 362.15 K) was 0.00479. The solubility (mole fraction) (in n-propanol, 300.25 K) was 0.000233, the solubility (mole fraction) (in n-propanol, 308.15 K) was 0.00037 and the solubility (mole fraction) (in n-propanol, 318.05 K) was 0.000598. For the same molecule, the solubility (mole fraction) (in n-propanol, 327.95 K) was 0.00102, the solubility (mole fraction) (in n-propanol, 342.75 K) was 0.00198 and the solubility (mole fraction) (in n-propanol, 352.45 K) was 0.00353. For the same molecule, the solubility (mole fraction) (in n-propanol, 361.85 K) was 0.00556.
